# Results reported in publication PMC8583966, “Proteasome Inhibitors and Their Pharmacokinetics, Pharmacodynamics, and Metabolism” (International Journal of Molecular Sciences, 2021).
# Like-named read-outs stand apart in the source and are kept apart here.
# Tests used:
# [1] = KZR-616 and metabolites in human plasma of SLE patients; type: in vivo; details: KZR-616 75 mg
# Procedure: Following repeat-dose SC administration, there was no apparent accumulation of immunoproteasome inhibition, although cumulative constitutive proteasome inhibition in whole blood was observed, likely due to the irreversible mechanism of KZR-616 inhibition and the inability of enucleated red blood cells (the major cellular source of constitutive proteasome) to produce new proteasomes. […] As in carfilzomib, and oprozomib, KZR-616 was not stable when incubated in HLMs in the absence of NADPH, indicating non-CYP enzymes were involved in its clearance. […] In pooled plasma samples from 4 patients with systemic lupus erythematous (SLE) receiving a KZR-616 dose of 75 mg, the diol was the major metabolite, and other metabolites from oxidation, hydrolysis + dehydrogenation, oxidation + dehydrogenation double oxidation were less than 1% of the total peak area of all components (Table 2).
# [2] = set-up: method as in PMID 34234005; details: absence of NADPH; cited from earlier work
# [3] = healthy volunteers, SC; cited from earlier work
# [4] = summary table; cited from earlier work
# proteasome subunits = details: summary table; cited from earlier work
# LMP2 = test system: LMP2; set-up: method as in PMID 30380863; details: mouse arthritis model, active dose; cited from earlier work
# [5] = PK of KZR-616 and analogs after single SC dose in monkeys; details: cynomolgus monkey, in vivo, single SC dose 3 mg/kg
# Procedure: (§1) To further evaluate the role of epoxide hydrolase in the metabolism of KZR-616, two analogs were selected for PK and PD studies in cynomolgus monkey to compare with KZR-616. […] Following single subcutaneous (SC) administration to monkeys at 3 mg/kg of these 3 compounds AUC values were the highest with KZR-59240, followed by KZR-616 and KZR-59177. The PK of both parent and diol for each compound were consistent with the stability results in MLM in the absence of NADPH, in which the CYP enzymes were not activated (Table 3), and, as predicted, the diol derivatives were determined to be the major metabolites for all compounds. The PK and PD of KZR-616 was assessed using 2 different drug product formulations, one containing 10% (w/v) PS-80, and the other 2% (w/v) trehalose.
# [6] = summary table; cited from earlier work; remark: listed apart in the source
# LMP7 = test system: LMP7; set-up: method as in PMID 30380863; details: mouse arthritis model, active dose; cited from earlier work
# [7] = PK of KZR-616 in two drug product formulations; type: in vivo; details: 10% (w/v) PS-80 vs 2% (w/v) trehalose formulation
# Procedure: as §1
# CYP450 isozyme 2C9 = details: human liver microsomes (~7 µg/mL); cited from earlier work
# [8] = Bortezomib plasma pharmacokinetics in patients; type: in vivo, human; details: CYP IC50 vs Cmax at 1.3 mg/m2
# Procedure: The relationship between plasma concentration and proteasome inhibition was assessed at 1, 6, and 24 h over a 24-hour period.
# [9] = cited from earlier work
# 20S proteasome = details: cited from earlier work; for inhibition of 20S proteasome activity: patients, single agent, after 1-h treatment
# CYP450 isozyme 2D6 = details: human liver microsomes (~7 µg/mL); cited from earlier work
# CYP450 isozyme 1A2 = details: human liver microsomes (~7 µg/mL); cited from earlier work
# CYP450 isozyme 3A4 = details: human liver microsomes (~7 µg/mL); cited from earlier work
# CYP450 isozyme 2C19 = details: human liver microsomes (~7 µg/mL); cited from earlier work
# proteasome [10] = test system: proteasome; set-up: method as in PMID 31142508; details: at MTD, 4 h post-dose; cited from earlier work
# [11] = set-up: method as in PMID 28428366; details: pooled HLMs, cited from earlier work
# [12] = set-up: method as in PMID 19348473; details: mice; cited from earlier work
# [13] = single agent, cited from earlier work
# [14] = set-up: method as in PMID 19348473; details: rats; cited from earlier work
# [15] = set-up: method as in PMID 19348473; details: dogs; cited from earlier work
# [16] = set-up: method as in PMID 28428366; details: human hepatocytes, quantified with synthesized standards; cited from earlier work
# [17] = set-up: method as in PMID 30128949; details: AUC0–816h time-proportional pooled plasma, single 4.1-mg oral dose [14C]-ixazomib, four patients; cited from earlier work
# β1 = test system: β1; set-up: method as in PMID 20110052; details: whole blood, doses as high as 45 mg/m2; cited from earlier work
# [18] = in vivo; cited from earlier work
# [19] = human, in vivo, iv; cited from earlier work
# β2 = test system: β2; set-up: method as in PMID 20110052; details: whole blood, doses as high as 45 mg/m2; cited from earlier work
# [20] = in vivo; cited from earlier work; remark: listed apart in the source
# proteasome CT-L activity = details: following the first dose for each week of dosing; cited from earlier work
# [21] = test system: LMP7 subunit of the immunoproteasome; details: patients, doses ≥15 mg/m2; cited from earlier work
# [22] = test system: β5 subunit of the constitutive proteasome; details: patients, doses ≥15 mg/m2; cited from earlier work
# [23] = test system: trypsin-like activity of the 20S proteasome; details: relative to β5 and LMP7; cited from earlier work
# CYP2B6 = details: at higher concentrations, recombinant CYP microsomes; cited from earlier work
# CYP1A2 = details: at higher concentrations, recombinant CYP microsomes; cited from earlier work
# CYP3A4 = details: at higher concentrations, recombinant CYP microsomes; cited from earlier work
# proteasome [24] = test system: proteasome; set-up: method as in PMID 30117017; details: whole blood, IV administration; cited from earlier work
# [25] = test system: caspase-like activity of the 20S proteasome; details: relative to β5 and LMP7; cited from earlier work
# [26] = patients, cited from earlier work
smiles,measurement,setting,value
"COc1ccc([C@@H](O)[C@H](NC(=O)[C@H](C)NC(=O)CN2CCOCC2)C(=O)N[C@@H](CC2=CCCC2)C(=O)[C@@]2(C)CO2)cc1 [KZR-616, (2S,3R)-N-((S)-3-(Cyclopent-1-en-1-yl)-1-((R)-2-methyloxiran-2-yl)-1oxopropan-2-yl)-3-hydroxy-3-(4-methoxyphenyl)-2-((S)-2-(2morpholinoacetamido)propanamido)propenamide]",Component in Plasma as % of Total XIC (Extracted Ion Chromatogram) Area,"[1]; Subject 110-004, SLE patient",61.2%
same,Component in Plasma as % of Total XIC (Extracted Ion Chromatogram) Area,"[1]; Subject 112-021, SLE patient",49.0%
same,Component in Plasma as % of Total XIC (Extracted Ion Chromatogram) Area,"[1]; Subject 113-002, SLE patient",46.5%
same,Component in Plasma as % of Total XIC (Extracted Ion Chromatogram) Area,"[1]; Subject 116-012, SLE patient",51.8%
same,stability in HLMs,[2],not stable
same,Tmax,[3],< 1 h
same,t1/2,[3],< 4 h
same,Absorption,[4],fast
same,Clearance,[4],fast
same,Subunit Inhibition,proteasome subunits,LMP2 and LMP7
same,LMP2 inhibition,LMP2,~ 40%
same,AUC(0-inf),[5],740 ± 188 ng·h/mL
same,Cmax,[5],441 ± 114 ng/mL
same,Tmax,[5],0.333 ± 0.136 h
same,half-life,[5],1.05 ± 0.13 h
same,Metabolic Pathwas,[6],Microsomal epoxide hydrolase
same,LMP7 inhibition,LMP7,complete
same,difference in Cmax between formulations,[7],2 fold
same,total exposure (AUC) in both formulations,[7],equivalent
CC(C)C[C@H](NC(=O)[C@H](Cc1ccccc1)NC(=O)c1cnccn1)B(O)O [Bortezomib],IC50,CYP450 isozyme 2C9,> 18 µM
same,CYP450 IC50 values higher than Cmax,[8],60 fold
same,Absorption,[4],fast
same,Clearance,[4],fast
same,Subunit Inhibition,proteasome subunits,ß5 and LMP7
same,variation of plasma concentration,[9]; 1 h post-dose,~ 800%
same,increase in bortezomib exposure,"[9]; DDI, plus ketoconazole (CYP3A4 inhibitor), patients",1.4 fold
same,variation of proteasome inhibition,20S proteasome; 1 h post-dose,~ 70%
same,recovery of proteasome activity,20S proteasome; 12 h after administration,50%
same,Time to Emax (median),20S proteasome; IV administration,5 min
same,mean maximum inhibition (Emax),20S proteasome; IV administration,approximately 69%
same,Time to Emax (median),20S proteasome; SC administration,120 min
same,time to complete recovery of proteasome activity,20S proteasome; after administration,≤ 72 h
same,time to full recovery of proteasome activity,20S proteasome; after dosing,36 h
same,time by which recovery of proteasome activity was observed,"20S proteasome; assessed at 1, 6 and 24 h",≤ 24 h
same,inhibition of 20S proteasome activity,20S proteasome; 0.40 mg/m2,36%
same,inhibition of 20S proteasome activity,20S proteasome; 1.04 mg/m2,60%
same,inhibition of 20S proteasome activity,20S proteasome; 1.20 mg/m2,65%
same,inhibition of 20S proteasome activity,20S proteasome; 1.38 mg/m2,74%
same,IC50,CYP450 isozyme 2D6,> 18 µM
same,Metabolic Pathwas,[6],"Hydrolases, CYPs"
same,IC50,CYP450 isozyme 1A2,> 18 µM
same,IC50,CYP450 isozyme 3A4,> 18 µM
same,IC50,CYP450 isozyme 2C19,> 18 µM
COc1ccc(C(O)C(NC(=O)C(C)NC(=O)CN2CCOCC2)C(=O)NC(CC2=CCCC2)C(=O)C(C)(O)CO)cc1 (stereo not shown) [KZR-59587],Component in Plasma as % of Total XIC (Extracted Ion Chromatogram) Area,"[1]; Subject 110-004, SLE patient",33.8%
same,Component in Plasma as % of Total XIC (Extracted Ion Chromatogram) Area,"[1]; Subject 112-021, SLE patient",45.8%
same,Component in Plasma as % of Total XIC (Extracted Ion Chromatogram) Area,"[1]; Subject 113-002, SLE patient",47.9%
same,Component in Plasma as % of Total XIC (Extracted Ion Chromatogram) Area,"[1]; Subject 116-012, SLE patient",43.8%
COC[C@H](NC(=O)c1cnc(C)s1)C(=O)N[C@@H](COC)C(=O)N[C@@H](Cc1ccccc1)C(=O)[C@@]1(C)CO1 [Oprozomib],Absorption,[4],fast
same,Clearance,[4],fast
same,proteasome inhibition,proteasome [10],≥ 70%
same,Subunit Inhibition,proteasome subunits,ß5 and LMP7
same,intrinsic clearance,[11]; absence of NADPH,20.2 ± 1.8 µL/min/mg protein
same,intrinsic clearance,[11]; presence of NADPH,70.7 ± 2.9 µL/min/mg protein
same,increase of intrinsic clearance by NADPH,[11]; presence vs absence of NADPH,3.5 fold
same,oral bioavailability F%,[12],17%
same,Metabolic Pathwas,[6],"Microsomal epoxide hydrolase peptidases, CYPs"
same,maximum tolerated dose (MTD),[13]; first 2 days every 7 days of a 14-day cycle (2/7 schedule),300 mg/day
same,maximum tolerated dose (MTD),[13]; first 5 days of a 14-day cycle (5/14 schedule),240 mg/day
same,oral bioavailability F%,[14],21%
same,oral bioavailability F%,[15],39%
same,percent of total oprozomib recovered as component,[16],20%
CC(C)C[C@H](O)NC(=O)[C@H](Cc1ccccc1)NC(=O)c1cnccn1 [M2],% of plasma TRA,[17],7.91%
CC(C)C[C@@H](O)NC(=O)[C@H](Cc1ccccc1)NC(=O)c1cnccn1 [M1],% of plasma TRA,[17],18.9%
COC[C@H](NC(=O)c1cnc(C)s1)C(=O)N[C@@H](COC)C(=O)N[C@@H](Cc1ccccc1)C(=O)[C@](C)(O)CO [PR-176],percent of total oprozomib recovered as component,[16],~ 55%
NC(=O)[C@H](Cc1ccccc1)NC(=O)c1cnccn1 [M3],% of plasma TRA,[17],10.6%
C[C@@](O)(CO)C(=O)[C@@H](N)Cc1ccccc1 [diol of PR-025],percent of total oprozomib recovered as component,[16],~ 7%
CC(C)C[C@H](NC(=O)[C@H](CCc1ccccc1)NC(=O)CN1CCOCC1)C(=O)N[C@@H](Cc1ccccc1)C(=O)N[C@@H](CC(C)C)C(=O)[C@@]1(C)CO1 [Carfilzomib],inhibition of β1,β1,Less than 18%
same,Subunit Inhibition,proteasome subunits,ß5 and LMP7
same,rates of peripheral neuropathy lower than with bortezomib,[18],> 60%
same,t1/2,[19],< 0.5 h
same,inhibition of β2,β2,Less than 18%
same,dose excreted intact,[20],less than 1%
same,time proteasome inhibition was maintained,proteasome CT-L activity,≥ 48 h
same,average inhibition of LMP7,[21],greater than 83%
same,average inhibition of β5,[22],greater than 83%
CC(C)C[C@H](NC(=O)CNC(=O)c1cc(Cl)ccc1Cl)B(O)O [Ixazomib],% of plasma TRA,[17],54.2%
same,less potency than for chymotrypsin-like activities,[23],1000 fold
same,Absorption,[4],fast
same,Clearance,[4],fast
same,Subunit Inhibition,proteasome subunits,ß5 and LMP7
same,contribution to metabolism,CYP2B6,16%
same,contribution to metabolism,CYP1A2,26%
same,Metabolic Pathwas,[6],"Hydrolases, CYPs"
same,contribution to metabolism,CYP3A4,42%
same,time to recovery of proteasome inhibition,proteasome [24],≤ 24 h
same,less potency than for chymotrypsin-like activities,[25],10 fold
same,Tmax,[26]; oral,approximately 1 h
same,apparent clearance,[26],~ 1.9 L/h
